Reference: patent US7700644B2, “Isoflavonoid dimers” (Novogen Research Pty Ltd, priority 2005, dated 2010)

Key:
[1] = system: Neonatal foreskin fibroblasts (NFF); experiment: Normal cell toxicity, MTT proliferation assay, NFF; type: cell-based, human; settings: NFF fibroblast, cultured 5 days, MTT
Experimental: Neonatal foreskin fibroblasts (NFF) were a gift from Dr. Peter Parsons (Queensland Institute of Medical Research). RK-13 (rabbit kidney) cells were obtained from Miller Whalley (Macquarie University). Both cell types were cultured in RPMI supplemented with 10% FCS (CSL, Australia), penicillin (100 U/ml), streptomycin ([…]), L-glutamine (2 mM) and sodium bicarbonate (1.2 g/L), and cultured at 37° C. in a humidified atmosphere of 5% CO2.
(§1) IC50 values were determined for each cell line. Cells were seeded in 96-well plates at an appropriate cell density as determined from growth kinetics analysis. NFFs were cultured for 5 days and RK-13s for 24 hrs in the absence and presence of the test compounds. Cell proliferation was assessed after the addition of 20 μl of 3-4,5 dimethylthiazol-2,5-diphenyl tetrazolium bromide (MTT, 2.5 mg/ml in PBS, Sigma) for 3-4 hrs at 37° C. according to manufacturer's instructions. IC50 values were calculated from semi-log plots of % of control proliferation on the y-axis against log dose on the x-axis.
Duplicate cytotoxicity assays against NFF cells were conducted with dehydroequol (DHE), 4,9-dihydroxy-14,15-dimethoxy-12a-(3′,4′-dimethoxyphenyl)-3,10-dimethyl-2,11-dioxa-(1H,12H)-6b,6c,12a,16b-tetrahydronaphtho[1,2-g]chrysene (2) from Example 6.1 and cisplatin.

A2780 (Ovarian) = experiment: In vitro cytotoxicity, MTT proliferation assay, A2780; type: cell-based, human
Experimental: (§2) The human pancreatic cancer cell line, HPAC (CRL-2119) was routinely cultured in 1:1 mixture DMEM (Sigma) plus Ham's F12 (Sigma) medium containing HEPES (15 mM), insulin (0.002 mg/ml), transferrin (0.005 mg/ml), hydrocortisone, (40 ng/ml), epidermal growth factor (10 ng/ml). The ovarian cancer cell line CP70 was obtained as a gift from Dr. Gil Mor (Yale University) and cultured in a 1:1 mixture DMEM plus Ham's F12 medium, and SKOV-3 was purchased from ATCC and cultured in McCoy's 5a medium. The breast cancer cell line MDA-MB-468 cultured in Leibovitz's L-15 medium.
(§3) All cultures were supplemented with 10% FCS(CSL, Australia), penicillin (100 U/ml), streptomycin ([…]), L-glutamine (2 mM) and sodium bicarbonate (1.2 g/L), and cultured at 37° C. in a humidified atmosphere of 5% CO2. All remaining cell lines were purchased from ATCC (Maryland, USA) except where noted.
as §1

[2] = system: ovarian cancer cell line CP70; experiment: In vitro cytotoxicity, MTT proliferation assay, CP70; type: cell-based, human
Experimental: as §2, §3, §1

SKOV-3 (Ovarian) = experiment: In vitro cytotoxicity, MTT proliferation assay, SKOV-3; type: cell-based, human; settings: Ovarian SKOV-3
Experimental: as §2, §3, §1

PC3 (Prostate) = experiment: In vitro cytotoxicity, MTT proliferation assay, PC3; type: cell-based, human
Experimental: as §2, §3, §1

LNCaP (Prostate) = experiment: In vitro cytotoxicity, MTT proliferation assay, LNCaP; type: cell-based, human
Experimental: as §2, §3, §1

DU145 (Prostate) = experiment: In vitro cytotoxicity, MTT proliferation assay, DU145; type: cell-based, human
Experimental: as §2, §3, §1

MCF-7 (Breast) = experiment: In vitro cytotoxicity, MTT proliferation assay, MCF-7; type: cell-based, human; settings: Breast MCF-7
Experimental: as §2, §3, §1

[3] = system: breast cancer cell line MDA-MB-468; experiment: In vitro cytotoxicity, MTT proliferation assay, MDA-MB-468; type: cell-based, human; settings: Breast MDA-MB-468
Experimental: as §2, §3, §1

HTB-138 (Glioma) = experiment: In vitro cytotoxicity, MTT proliferation assay, HTB-138; type: cell-based, human; settings: Glioma HTB-138
Experimental: as §2, §3, §1

[4] = system: human pancreatic cancer cell line, HPAC (CRL-2119); experiment: In vitro cytotoxicity, MTT proliferation assay, CRL-2119; type: cell-based; settings: Pancreatic CRL-2119
Experimental: as §2, §3, §1

NCI-H460 (Lung) = experiment: In vitro cytotoxicity, MTT proliferation assay, NCI-H460; type: cell-based, human
Experimental: as §2, §3, §1

HT-29 (Colorectal) = experiment: In vitro cytotoxicity, MTT proliferation assay, HT-29; type: cell-based, human; settings: Colorectal HT-29
Experimental: as §2, §3, §1

HCT-15 (Colorectal) = experiment: In vitro cytotoxicity, MTT proliferation assay, HCT-15; type: cell-based, human; settings: Colorectal HCT-15
Experimental: as §2, §3, §1

MM200 (Melanoma) = experiment: In vitro cytotoxicity, MTT proliferation assay, MM200; type: cell-based, human
Experimental: as §2, §3, §1

MM96L (Melanoma) = experiment: In vitro cytotoxicity, MTT proliferation assay, MM96L; type: cell-based, human
Experimental: as §2, §3, §1

PGE2 synthesis = PGE2 synthesis in human monocytes incubated with LPS; type: cell-based; settings: LPS 200 ng/mL, 18 hrs, dose responsive
Experimental: (§4) Human peripheral blood monocytes (from three separate individuals) were isolated from buffy coats by lymphoprep gradient separation of mononuclear cells followed by counter-current centrifugal elutriation (Demasi et al. 2000). The test compounds were dissolved in DMSO and added to fresh monocytes After 30 min, LPS was added to achieve a final concentration of 200 ng/mL. After incubation for 18 hrs at 37° C. in 5% CO2, supernatants were removed and PGE2, TXB2 (the stable hydrolysis product of TXA2) and TNFα production were measured by radioimmunoassay (RIA).

TXB2 synthesis = TXB2 synthesis in human monocytes incubated with LPS; type: cell-based; settings: LPS 200 ng/mL, 18 hrs, dose responsive
Experimental: as §4

TNFα synthesis = TNFα synthesis in human monocytes incubated with LPS; type: cell-based; settings: LPS 200 ng/mL, 18 hrs
Experimental: as §4

PGE2 = PGE2 in murine macrophages (RAW 264.7) stimulated with LPS; type: cell-based, mouse; settings: RAW 264.7, LPS 50 ng/ml, 16 hrs, dose responsive
Experimental: (§5) The mouse macrophage cell line RAW 264.7 was cultured in DMEM supplemented with FCS, 2 mM glutamine and 50 U/ml penicillin/streptomycin. Subconfluent cells were detached from the flask by gentle scraping and 24-well plates seeded at 5×10^5 cells per well and allowed to adhere for 1 hr. Cells were then treated either test compounds (in 0.025% DMSO) or vehicle alone, and incubated for 1 hr. LPS 50 ng/ml (LPS —Sigma-Aldrich) was then added. After incubation for 16 hrs, culture media was collected and stored at −80° C. for ecosanoid and cytokine measurements using enzyme immunometric assays (PGE2 and TXB2—Cayman Chemical and TNFα—Becton Dickinson).

TXB2 = TXB2 in murine macrophages (RAW 264.7) stimulated with LPS; type: cell-based, mouse; settings: RAW 264.7, LPS 50 ng/ml, 16 hrs, dose responsive
Experimental: as §5

[5] = system: UV irradiation-induced skin oedema; experiment: Murine model of UV irradiation-induced skin oedema; type: in vivo, female Skh:hr-1 albino mice; settings: for Change in skin thickness (mean ± SD, ×0.01 mm): dorsal skin fold, topical 0.2 ml of 20 μM at 30 min, 2 h, 4 h
From the text: Groups of 4-5 female Skh:hr-1 albino mice were irradiated with 1×3 MEdD (minimal edematous dose) of solar simulated UV radiation (SSUV). Solar-simulated ultraviolet radiation (SSUV) was provided by a planar bank of 6 UVA tube (Hitachi 40W F40T 10/BL, black light) and one UVB tube (Philips TL 40W/12RS) with radiation filtered through a sheet of 0.125 mm cellulose acetate (Eastman Chemical Products, Kingport, Tenn., USA) to give 2.96×10-4W/cm2 UVA and 1.59×10-5W/cm2 UVB. The distance of the UV lamp from the irradiance table surface was approximately 20 cm and temperature was controlled with an electric fan. During irradiation, the cages were rotated below the lights to reduce the variation in radiation intensity in different positions.
Either test compound (0.2 ml of a 20 μM solution) or vehicle (propylene glycol/ethanol/water 1:2:1) was applied to the irradiated dorsal skin at 30 min, 2 h and 4 h post-irradiation. Dorsal skin fold measurements were made with a spring micrometer prior to and at 24 hr and 48 h post-UV exposure. The difference in skin thickness pre- and post-exposure to UVR was calculated for each mouse, and the differences examined between test compound and vehicle control were analysed using an unpaired two-tailed t test.

splenocytes = experiment: Murine splenocyte proliferation with mitogens (MTT), 3 day incubation with compound; type: cell-based, Male Skh-1 (hairless) mice
Experimental: Male Skh-1 (hairless) mice, six weeks old were killed by cervical dislocation. Single cell suspensions were made from their spleens and erythrocytes were lysed in buffer (0.14M NH4Cl, 17 mM Tris, pH 7.2). The remaining splenocytes were cultured in RPMI-1640 (Gibco) supplemented with 10% (v:v) FBS, 200 mM L-glutamine, penicillin/streptomycin and […] 2-mercaptoethanol. […] Samples were analysed after a 3 day incubation at 37° C. in 5% CO2 in air. To assess cell numbers, methylthiazoletetrazolium (MTT) was added to each well, incubated for a further 4 hrs and then colour developed with 0.04N HCl in isopropanol (Mosmann 1983). Plates were read at 570 nm and 630 nm. The compounds were examined several times using different mice. For each assay, the effect of test compound was compared with that of vehicle control, and the results compared using a student's t test (Prism). Statistically significant difference was determined to have occurred when p<0.05.

unstimulated splenocytes = experiment: Murine splenocytes, 24 hour pre-incubation with compound then mitogenic stimulation; type: cell-based, Male Skh-1 (hairless) mice; settings: 10 μM
Experimental: Male Skh-1 (hairless) mice, six weeks old were killed by cervical dislocation. Single cell suspensions were made from their spleens and erythrocytes were lysed in buffer (0.14M NH4Cl, 17 mM Tris, pH 7.2). The remaining splenocytes were cultured in RPMI-1640 (Gibco) supplemented with 10% (v:v) FBS, 200 mM L-glutamine, penicillin/streptomycin and […] 2-mercaptoethanol. Splenocytes were added to triplicate wells containing either concanavalin A (ConA, Sigma-Aldrich—0.4 μg/well), lipopolysaccharide (LPS, Sigma-Aldrich—1 μg/well) or no mitogen, as well as 10 μM of either Compound 1 or Compound 2 in DMSO, or DMSO alone. Samples were analysed after a 3 day incubation at 37° C. in 5% CO2 in air. To assess cell numbers, methylthiazoletetrazolium (MTT) was added to each well, incubated for a further 4 hrs and then colour developed with 0.04N HCl in isopropanol (Mosmann 1983). Plates were read at 570 nm and 630 nm. The compounds were examined several times using different mice. For each assay, the effect of test compound was compared with that of vehicle control, and the results compared using a student's t test (Prism). Statistically significant difference was determined to have occurred when p<0.05.
Another assay examined the effect pre-incubating unstimulated splenocytes with test compounds at 10 μM for 24 hours, removing the compounds and then assessing their ability to respond to mitogenic stimulation as described for the previous assay. Cell numbers were assessed after the 24 hr pre-incubation using MTT, and equal numbers of cells/well plated into 96 well plates as usual.

## N.N.[Cl][Pt][Cl] [Cisplatin, cis-diamminedichloroplatinum]
[1]
  IC50: 9.85 ± 5 µM
A2780 (Ovarian)
  IC50: 2.1 µM
[2]
  IC50: 10.3 µM
SKOV-3 (Ovarian)
  IC50: 5.4 µM
PC3 (Prostate)
  IC50: 2.11 µM
LNCaP (Prostate)
  IC50: > 10 µM
DU145 (Prostate)
  IC50: 2.07 µM
MCF-7 (Breast)
  IC50: 3.69 µM
[3]
  IC50: 0.58 µM
HTB-138 (Glioma)
  IC50: 42.3 µM
[4]
  IC50: 9.36 µM
NCI-H460 (Lung)
  IC50: 22.3 µM
HT-29 (Colorectal)
  IC50: 22.7 ± 35 µM
HCT-15 (Colorectal)
  IC50: 130 ± 39 µM
MM200 (Melanoma)
  IC50: 8.82 µM
MM96L (Melanoma)
  IC50: 4.6 µM

## COc1ccc(C23COc4cc(O)ccc4C2C2c4ccc(O)cc4OCC2c2cc(OC)c(OC)cc23)cc1OC (stereo not shown) [Cpd. 1, 4,9-Dihydroxy-14,15-dimethoxy-12a-(3′,4′-dimethoxyphenyl)-2,11-dioxa-(1H,12H)-6b,6c,12a,16b-tetrahydronaphtho[1,2-g]chrysene]
PGE2 synthesis
  effect on PGE2 synthesis: induced
TXB2 synthesis
  effect on TXB2 synthesis: inhibited
TNFα synthesis
  effect on induction of TNFα: inhibited
PGE2
  effect on PGE2: induced
TXB2
  effect on TXB2: inhibited
[5]; 24 hrs post-irradiation
  inhibition of skin oedema: significantly inhibited
[5]; 24 hrs post-irradiation, vehicle 78 ± 23
  Change in skin thickness (mean ± SD, ×0.01 mm): 51 ± 14 ×0.01 mm
[5]; 48 hrs post-irradiation, vehicle 147 ± 37
  Change in skin thickness (mean ± SD, ×0.01 mm): 117 ± 20 ×0.01 mm
splenocytes; 10 μM, LPS, 3 day incubation
  effect on B cell proliferation: no effect
splenocytes; 10 μM, no mitogen, significant in 5/6 assays
  enhancement of proliferation of unstimulated splenocytes: 25-33%
splenocytes; Mus musculus, Splenocyte, 72 h, 10 μM, ConA, 3 day incubation, significant in 4/6 assays, read-out: inhibition of T cell proliferation
  inhibition at 10 µM: 14 to 19%
splenocytes; higher concentrations (than 10 μM), regardless of mitogenic stimulation
  proliferation compared with vehicle control: reduced proliferation
Unstimulated splenocytes
  Splenocyte viability following three days' culture in the absence of mitogen: not affected
  reduction in cell numbers compared with vehicle alone: 73%
Unstimulated splenocytes; compound removed
  proliferative response to ConA after pre-incubation: no effect
